Reference: patent publication US6812231B2, “Benzamidine derivative” (Ajinomoto Co., Inc., priority 1998, dated 2004)

Key:
[1] = biological target: T1, activated human blood coagulation factor X (Homo sapiens, UniProt P00742); assay: Determination of activity of inhibiting the activated blood-coagulation factor X (chromogenic substrate, initial rate); assay type: biochemical; conditions: tris hydrochloride buffer pH 8.4, room temperature, absorbance 405 nm; for IC50: read-out: Activity of inhibiting activated blood coagulation factor X (pIC50) (converted)
T1 construct: purchased Enzyme Research Co
Protocol: Determination of Activity of Inhibiting the Activated Blood-coagulation Factor X
130 μl of 100 mM tris hydrochloride buffer adjusted to pH 8.4 was added to 10 μl of an aqueous solution of a compound to be tested. Then 10 μl of a 0.5 unit/ml solution of activated human blood coagulation factor X (a product of Enzyme Research Co.) in tris hydrochloride of pH 8.4 was added to the resultant mixture. After the incubation at room temperature for 10 minutes, 50 μl of a solution of N-benzoyl-L-isoleucyl-L-glutamyl-glycyl-L-arginyl-P-nitroanilide hydrochloride (a product of Peptide Institute, Inc.) adjusted to 0.8 mM with tris hydrochloride (pH 8.4) was added thereto. The absorbance was determined and then the initial reaction rate was determined. A control was prepared in the same manner as that described above except that the solution of the compound to be tested was replaced with 10 μl of tris hydrochloride buffer adjusted to pH 8.4. The absorbance was determined with MICROPLATE READER Model 3550-UV (a product of BIO RAD) at a wave length of 405 nm at intervals of 15 seconds for 16 minutes.

human thrombin = biological target: T2, human thrombin (Homo sapiens, UniProt P00734); assay: Determination of thrombin-inhibiting activity (chromogenic substrate S-2238, initial rate); assay type: biochemical; conditions: tris hydrochloride buffer pH 8.4, room temperature, absorbance 405 nm; for IC50: read-out: Thrombin-inhibiting activity (pIC50) (converted)
T2 construct: solution of human thrombin (a product of SIGMA Co.); purchased SIGMA Co
Protocol: Determination of Thrombin-inhibiting Activity
130 μl of 100 mM tris hydrochloride buffer adjusted to pH 8.4 was added to 10 μl of an aqueous solution of a test compound. Then 10 μl of a solution of human thrombin (a product of SIGMA Co.) adjusted to 2 units/ml with tris hydrochloride buffer of pH 8.4 was added to the resultant mixture. After the incubation at room temperature for 10 minutes, 50 μl of a solution of D-phenylalanyl-L-pipecolyl-L-arginyl-P-nitroanilide dihydrochloride (S-2238; a product of Daiichi Kagaku Yakuhin Co.) adjusted to 0.4 mM with tris hydrochloride buffer of pH 8.4 was added thereto. The absorbance was determined and then the initial reaction rate was determined. A control was prepared in the same manner as that described above except that the solution of the compound to be tested was replaced with 10 μl of tris hydrochloride buffer adjusted to pH 8.4. The absorbance was determined with MICROPLATE READER Model 3550-UV (a product of […]) at a wave length of 405 nm at intervals of 15 seconds for 16 minutes.

T1 sequence (P00742 235-488 limits assumed): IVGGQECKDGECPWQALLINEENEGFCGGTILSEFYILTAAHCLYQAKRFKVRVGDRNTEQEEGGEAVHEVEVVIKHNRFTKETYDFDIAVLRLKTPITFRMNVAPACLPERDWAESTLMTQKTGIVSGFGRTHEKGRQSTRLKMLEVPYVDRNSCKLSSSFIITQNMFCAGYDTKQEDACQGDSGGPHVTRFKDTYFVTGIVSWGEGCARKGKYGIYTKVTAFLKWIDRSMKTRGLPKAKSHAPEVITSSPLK
T1 sequence (P00742 41-179 partner limits assumed): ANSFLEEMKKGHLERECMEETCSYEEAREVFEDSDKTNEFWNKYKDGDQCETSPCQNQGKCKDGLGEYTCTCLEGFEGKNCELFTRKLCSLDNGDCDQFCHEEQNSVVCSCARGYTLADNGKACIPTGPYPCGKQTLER

Molecule	Activity of inhibiting activated blood coagulation factor X (pIC50) [1]	Thrombin-inhibiting activity (pIC50) (human thrombin)	IC50 [1]	IC50 (human thrombin)
3-[4-amidino-2-(2-((1-(1-methylpyridinium-4-yl)piperidine-4-carbonyl)amino)ethoxy)phenyl]-2-oxopropionic acid bistrifluoroacetate [Compd. of Ex. 52]	7.1	4.2	–	–
3-[4-amidino-(2R)-2-((1-(pyridine-4-yl)piperidine-4-carbonyl)pyrrolidine-2-ylmethoxy)phenyl]propionic acid bistrifluoroacetate [Compd. of Ex. 26]	7.8	<4.0	–	–
CC(=N)N1CCC(Oc2ccc(C(=O)NCCOc3cc(C(=N)N)ccc3C=CC(=O)O)cc2)CC1.O=C(O)C(F)(F)F.O=C(O)C(F)(F)F [Compd. of Ex. 2, 3-[4-amidino-2-(2-(4-(1-(1-acetimidoyl)-4-piperidyloxy)benzoylamino)ethoxy)phenyl]acrylic acid bistrifluoroacetate]	–	<3.0	–	–
CC(=N)N1CCC(Oc2ccc(C(=O)NCCOc3cc(C(=N)N)ccc3CCC(=O)O)cc2)CC1.O=C(O)C(F)(F)F.O=C(O)C(F)(F)F [Compd. of Ex. 4, 3-[4-amidino-2-(2-(4-(1-(1-acetimidoyl)-4-piperidyloxy)benzoylamino)ethoxy)phenyl]propionic acid bistrifluoroacetate]	7.5	<3.0	–	–
CCOC(=O)CCc1ccc(C(=N)N)cc1OCCNC(=O)C1CCN(c2ccncc2)CC1 [Compd. of Ex. 5, ethyl 3-[4-amidino-2-(2-((1-(pyridine-4-yl)piperidine-4-carbonyl)amino)ethoxy)phenyl]propionate bistrifluoroacetate]	–	–	63.1 nM	6310 nM
N=C(N)c1ccc(CCC(=O)O)c(OCCNC(=O)C2CCN(c3ccncc3)CC2)c1.O=C(O)C(F)(F)F.O=C(O)C(F)(F)F [Compd. of Ex. 6]	7.4	<3.0	–	–
CC(=N)N1CCC(Oc2ccc(C(=O)N[C@@H](COc3cc(C(=N)N)ccc3CCC(=O)O)CC(=O)O)cc2)CC1.O=C(O)C(F)(F)F.O=C(O)C(F)(F)F [Compd. of Ex. 10, (3R)-4-[5-amidino-2-(2-carboxyethyl)phenoxy]-3-[4-(1-(1-acetimidoyl)-4-piperidyloxy)benzoylamino]butanoic acid bistrifluoroacetate]	7.4	<3.0	–	–
N=C(N)c1ccc(CCC(=O)O)c(OC[C@@H](CC(=O)O)NC(=O)C2CCN(c3ccncc3)CC2)c1 [Compd. of Ex. 13, (3R)-4-[5-amidino-2-(2-carboxyethyl)phenoxy]-3-[(1-(pyridine-4-yl)piperidine-4-carbonyl)amino]butanoic acid bistrifluoroacetate]	–	–	25.1 nM	> 794000 nM
CC(=N)N1CCC(Oc2ccc(C(=O)NCCOc3cc(C(=N)N)ccc3O)cc2)CC1 [Compd. of Ex. 14, N-[2-(5-amidino-2-hydroxyphenoxy)ethyl]-4-(1-acetimidoyl-4-piperidyloxy)benzamide bistrifluoroacetate]	–	–	15.8 nM	> 100000 nM
CC(=N)N1CCC(Oc2ccc(C(=O)N[C@@H](COc3cc(C(=N)N)ccc3O)CC(=O)O)cc2)CC1 [Compd. of Ex. 28, (3R)-4-(5-amidino-2-hydroxyphenoxy)-3-[4-(1-acetimidoyl-4-piperidyloxy)benzoylamino]butanoic acid bistrifluoroacetate]	–	–	15.8 nM	> 100000 nM
N=C(N)c1ccc(O)c(OC[C@@H](CC(=O)O)NC(=O)C2CCN(c3ccncc3)CC2)c1 [Compd. of Ex. 29, (3R)-4-(5-amidino-2-hydroxyphenoxy)-3-[(1-(pyridine-4-yl)piperidine-4-carbonyl)amino]butanoic acid bistrifluoroacetate]	–	–	12.6 nM	> 100000 nM
N=C(N)c1ccc(CO)c(OCCNC(=O)C2CCN(c3ccncc3)CC2)c1.O=C(O)C(F)(F)F.O=C(O)C(F)(F)F [Compd. of Ex. 37, N-[2-(5-amidino-2-hydroxymethylphenoxy)ethyl]-1-(1-(1-pyridine-4-yl)piperidine)carboxamide bistrifluoroacetate]	7.3	<4.0	–	–
COC(=O)c1ccc(C(=N)N)cc1OCCNC(=O)c1ccc(OC2CCN(C(C)=N)CC2)cc1.O=C(O)C(F)(F)F.O=C(O)C(F)(F)F [Compd. of Ex. 38, methyl 4-amidino-2-[2-(4-[1-(1-acetimidoyl)-4-piperidyloxy]benzoylamino)ethoxy]benzoate bistrifluoroacetate]	–	3.3	–	–
N=C(N)c1ccc(CCCO)c(OCCNC(=O)C2CCN(c3ccncc3)CC2)c1.O=C(O)C(F)(F)F.O=C(O)C(F)(F)F [Compd. of Ex. 43, N-[2-(5-amidino-2-hydroxypropylphenoxy)ethyl]-1-(1-(1-pyridine-4-yl)piperidine)carboxamide bistrifluoroacetate]	7.8	<4.0	–	–
CN1CCN=C1c1ccc(C(=O)NCCOc2cc(C(=N)N)ccc2CC(=O)C(=O)O)cc1.O=C(O)C(F)(F)F.O=C(O)C(F)(F)F [Compd. of Ex. 51]	8.1	4.3	–	–
(3R)-3-[4-amidino-2-(3-ethoxycarbonyl-2-(4-(1-(1-acetimidoyl)-4-piperidyloxy)benzoylamino)propoxy)phenyl]acrylic acid bistrifluoroacetate [Compd. of Ex. 8]	–	<3.0	–	–
N-[2-(5-amidino-2-hydroxyphenoxy)ethyl]-1-(4-pyridyl)-4-piperidine-4-carboxamide bistrifluoroacetate [Compd. of Ex. 15]	8	<4.0	–	–
ethyl (3R)-4-[5-amidino-2-(2-ethoxycarbonylethyl)phenoxy]-3-[4-(1-(1-acetimidoyl)-4-piperidyloxy)benzoylamino]butanoate bistrifluoroacetate [Compd. of Ex. 9]	–	5.5	–	–
